The text below walks through data of patent EP0153858A2, “The therapeutic use of prostaglandins” (THE UPJOHN COMPANY, priority 1984, dated 1985).

Assay [1] relates to patients with severe postoperative ARDS. To be noted: cited from earlier work.
In assay [2] the test system is patients with ARDS. The assay can be described thus: Double blind randomized study of PGE1 versus placebo in ARDS patients; survival, and mortality by creatinine/bilirubin level (Example 2). Format: in vivo, human. To be noted: 30 ng/kg/min for 7 days; 17 out of 26 patients survived. Here is the method:
Fifty patients with ARDS were randomized to receive PGE1 (30 ng/kg/min for 7 days) or placebo (equivalent volumes of saline and time) in a double blind study. For entry, patients must have required mechanical ventilation with an inspired oxygen concentration of 40% or more and a positive end respiratory pressure of 5 em of water or more. Most of the patients (70%) were septic. 17 out of 26 patients who had received PGE1 survived (65% survival) while only 7 out of 24 patients who had received placebo survived (29% survival).
The relation between the bilirubin and creatinine levels and the mortality of the patients enrolled in this study is depicted in Table 2. […] Creatinine and bilirubin levels are indicative of kidney and liver function, respectively. The data thus indicate that PGE1 prevents severe kidney and liver damage, and greatly decreases the risk of death, for patients highly susceptible to kidney failure, liver failure, and/or death as a result of trauma, sepsis, shock, and similar catastrophic events.

Assay [3] has as its system patients suffering from ARDS. The assay can be described thus: Prospective randomized double blind placebo controlled study of PGE1 infusion in ARDS patients (Example 1). Format: in vivo, human. To be noted: 30 days after discontinuing the infusion; i.v. 5 ng/kg/min increased to 30 ng/kg/min, for 7 days or until extubated; 21 patients. The method, then: An intravenous solution was prepared by mixing one 5 ml ampoule of Prostin VR Pediatric Sterile Solution containing 2.5 mg PGE1 active drug with one liter of D5W or Normal Saline. Dosages of this solution or of a control solution containing only vehicle but no PGE1 were administered to 41 patients suffering from ARDS in a prospective randomized double blind placebo controlled study. PGE1 or the control solution was started at a dose of 5 ng/kg/min and then increased 5 ng/kg/min every 30 minutes until a rate of 30 ng/kg/min was reached.
This dosage was continued for 7 days or until the patient was extubated, whichever came sooner. The survival rate 30 days after discontinuing the infusion was as follows: […]

Assay [4] concerns beagles suffering from hemorrhagic shock. To be noted: infusion; cited from earlier work.
Assay [5] deals with microvascular permeability. To be noted: sheep; cited from earlier work.
Assay [6] deals with endotoxin-induced lung injury. To be noted: infusion of the prostaglandin; cited from earlier work.
The subject of assay [7] is trauma. To be noted: reported experimentally; cited from earlier work.

Regarding `CCCCC[C@H](O)/C=C/[C@H]1[C@H](O)CC(=O)[C@@H]1CCCCCCC(=O)O` [PGE1, Prostaglandin E1], the “lung function of each patient” value in assay [1] (5 patients with severe postoperative ARDS) is reported as “improved”. Moreover, the “patients died of associated problems, including vital organ failure” value in assay [1] (of 5 patients with severe postoperative ARDS) was “three”. In addition, in assay [2], the survival was 65%. Further, the “Survival Rate (%)” value in assay [3] is on record as 71.4%. Besides, in assay [4], the survival rate result is on record as “improved”. Further, in assay [5], the “increase of microvascular permeability” value was “Reversal”. Moreover, in assay [6], the “lung and systemic injury associated with endotoxin infusion” value is “decreased”.
For `CCCCC[C@H](O)/C=C/[C@@H]1[C@H]2C/C(=C/CCCC(=O)O)O[C@H]2C[C@H]1O` [PGI2, prostacyclin], in assay [7], the “survival rate after trauma” value is given as “beneficial in increasing the survival rate”. In addition, in assay [6], the “lung and systemic injury associated with endotoxin infusion” value is given as “decreased”.
